Experimental data: patent US20050209157A1, “Short bioactive peptides and methods for their use” (priority 2001, published 2005)
Values after ≈ are worked out from the molar mass of the structure shown. Where two headings read alike, the source gives them in different places. Non-standard residues stand in square brackets, D forms with d. Residues, ends and D or L forms follow the SMILES beside them. No end group written: not given here.

How the values were obtained:
H1299 = assay: Anti-cancer assay, MTT, LD50; type: cell-based; conditions: 24 hours with peptide, lung large cell carcinoma
From the text: (§1) Numbers are LD50 values (μg/mL).

PC3 = assay: Anti-cancer assay, MTT, LD50; type: cell-based; conditions: 24 hours with peptide, prostate adenocarcinoma
From the text: as §1

MCF7 = assay: Anti-cancer assay, MTT, LD50; type: cell-based; conditions: MCF7 breast adenocarcinoma line, MTT, 24 hours with peptide
From the text: as §1

BMKC = assay: Anti-cancer assay, MTT, LD50; type: cell-based; conditions: BMKC cloned melanoma line, 24 hours with peptide
From the text: as §1

SW480 = assay: Anti-cancer assay, MTT, LD50; type: cell-based; conditions: SW480 colon adenocarcinoma line, 24 hours with peptide
From the text: as §1

[1] = test system: Staphylococcus aureus ATCC 6538; assay: Antimicrobial assay I, MIC by OD measurement; type: cell-based; conditions: 37° C. for 24 hours, absorbance 620 nm
[2] = test system: Pseudomonas aeruginosa ATCC 9027; assay: Antimicrobial assay I, MIC by OD measurement; type: cell-based; conditions: 37° C. for 24 hours, absorbance 620 nm
S. pyogenes M76 = assay: Antimicrobial assays II, NCCLS broth microdilution MIC; type: cell-based, Streptococcus pyogenes; conditions: mean of three; 16 to 20 hours at 35° C.
P. aeruginosa H774 = type: cell-based, Pseudomonas aeruginosa; conditions: P. aeruginosa H744; nalidixic acid + peptide at ¼ MIC; 0.5 or less = synergy
Method in brief: (§2)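 Efflux-mutant strains were tested with two-fold serial dilutions of chloramphenicol or nalidixic acid, alone and with peptide held at ¼ of its own MIC.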

P. aeruginosa = type: cell-based, Pseudomonas aeruginosa; conditions: P. aeruginosa H744; MIC of nalidixic acid with peptide at ¼ MIC
Method in brief: as §2

P. aeruginosa H374 = type: cell-based, Pseudomonas aeruginosa; conditions: for MIC Cm-comb.: MIC of chloramphenicol with peptide at ¼ MIC; for MIC Nal-comb.: MIC of nalidixic acid with peptide at ¼ MIC; for FIC Index: 0.5 or less = synergy
Method in brief: as §2

S. pneumoniae C718 = assay: Antimicrobial assays II, NCCLS broth microdilution MIC; type: cell-based, Streptococcus pneumoniae; conditions: mean of three
S. pyogenes ATCC19615 = assay: as above; type: cell-based, Streptococcus pyogenes; conditions: mean of three, in µg/mL
S. aureus (MRSA) = type: cell-based, Staphylococcus aureus; conditions: mean of three; 16 to 20 hours at 35° C.
S. pneumoniae C719 = assay: Antimicrobial assays II, NCCLS broth microdilution MIC; type: cell-based, Streptococcus pneumoniae; conditions: mean of three, in µg/mL
[3] = test system: yeast (Saccharomyces cerevisiae); assay: Antimicrobial assay I, yeast assay in RPMI 1640; type: cell-based; conditions: RPMI 1640 media
in vitro [4] = conditions: human, WI38 normal lung fibroblast cells, LD50 WI38, WI38 normal lung fibroblast line, MTT, 24 hours with peptide
S. epidermidis C621 = type: cell-based, Staphylococcus epidermidis; conditions: mean of three; 16 to 20 hours at 35° C.
in vitro [5] = type: cell-based, human; conditions: human, human red blood cells, pH 7, hemolytic assay, concentration at 50% hemolysis, 1 hour at 37° C.; read-out: LD50
P. acne ATCC 6919 = assay: Antimicrobial assays II, NCCLS broth microdilution MIC; type: cell-based, Propionibacterium acnes; conditions: mean of three, in µg/mL
WI38 = conditions: MTT, 24 hours with peptide; normal fibroblast line
HeLaS3 = assay: Anti-cancer assay, MTT, LD50; type: cell-based; conditions: 24 hours with peptide, cervical carcinoma
From the text: as §1

[6] = chloramphenicol + peptide at ¼ MIC
[7] = nalidixic acid + peptide at ¼ MIC, FIC=0.25+MIC comb/MIC alone

Molecule | H1299 LD50 (H1299) [µg/mL] | PC3 LD50 (PC3) [µg/mL] | LD50 MCF7 (MCF7) [µg/mL] | LD50 BMKC (BMKC) [µg/mL] | LD50 SW480 (SW480) [µg/mL] | staph6538 (MIC) [1] | paerug9027 (MIC) [2] | S. pyogenes M76 MIC (S. pyogenes M76) [µg/mL] | FIC Index (P. aeruginosa H774) | MIC Nal-comb. (P. aeruginosa) [µg/mL] | MIC Cm-comb. (P. aeruginosa H374) [µg/mL] | MIC Nal-comb. (P. aeruginosa H374) [µg/mL] | FIC Index (P. aeruginosa H374; [6]) | FIC Index (P. aeruginosa H374; [7]) | S. pneumoniae MIC (S. pneumoniae C718) [µg/mL] | S. pyogenes MIC (S. pyogenes ATCC19615) | S. aureus (MRSA) MIC (S. aureus (MRSA)) [µg/mL] | S. pneumoniae MIC (S. pneumoniae C719) | yeast (MIC or MFC) [3] | CC50 at 24 h (in vitro [4]) [µg/mL] | also measured
CC(C)C[C@H](NC(=O)[C@H](C)NC(=O)[C@H](CCCCN)NC(=O)[C@H](CCCCN)NC(=O)[C@H](CC(C)C)NC(=O)[C@H](C)NC(=O)[C@H](CCCCN)NC(=O)[C@H](CCCCN)NC(=O)[C@H](CC(C)C)NC(=O)[C@@H](CCCCN)NC(=O)[C@@H](CCCCN)NC(=O)[C@H](CC(C)C)NC(=O)[C@H](C)NC(=O)[C@H](CCCCN)NC(=O)[C@H](CCCCN)NC(=O)[C@H](CC(C)C)NC(=O)[C@H](C)NC(=O)[C@H](CCCCN)NC(=O)[C@H](CC(C)C)NC(=O)[C@H](C)NC(=O)[C@H](CC(C)C)NC(=O)[C@H](C)NC(=O)[C@@H](N)Cc1ccccc1)C(=O)O [P37, FALALKALKKAL-(D)-K-(D)-KLKKALKKAL-COOH] (H-FALALKALKKAL[dK][dK]LKKALKKAL-OH; N-terminus assumed) | 150 | 64 | 14 | 150 | 57 | 5 µg/mL | 100 µg/mL | 8 | 1.25 | 624 | 4 | 2500 | 0.5 | 0.75 | 64 | 8 | 8 | 16 | 50 µg/mL | 80 (≈ 31.5 µM) | S. epidermidis C621 MIC (S. epidermidis C621): 4 µg/mL; HC50 at 1 h (in vitro [5]): 30 µg/mL; P. acne MIC (P. acne ATCC 6919): 4; WI38 LD50 (WI38): 80 µg/mL
KWKLFKKKTKLFKKFAKKLAKKL-NH2 [P73] | 115 | 97 | 150 | 360 | 70 | 50 µg/mL | 15 µg/mL | 16 | 1.25 | 624 | 8 | 2500 | 0.75 | 0.75 | > 128 | 16 | 16 | 64 | 100 µg/mL | 160 | HeLaS3 LD50 (HeLaS3): 270 µg/mL; S. epidermidis C621 MIC (S. epidermidis C621): 4 µg/mL; HC50 at 1 h (in vitro [5]): 90 µg/mL; P. acne MIC (P. acne ATCC 6919): 4; WI38 LD50 (WI38): 160 µg/mL
FAKFLAKFLKKAL-NH2 [P111, FAKFLAKFLKKAL-NH2] | 8 | 11 | 35 | 26 | 27 | 5 µg/mL | 100 µg/mL | 4 | 1.25 | 624 | 16 | 2500 | 1.25 | 0.75 | 16 | 2 | 8 | 4 | 200 µg/mL | 24 | HeLaS3 LD50 (HeLaS3): 7 µg/mL; S. epidermidis C621 MIC (S. epidermidis C621): 4 µg/mL; HC50 at 1 h (in vitro [5]): 60 µg/mL; P. acne MIC (P. acne ATCC 6919): 4; WI38 LD50 (WI38): 24 µg/mL
FAKLLAKALKKLL-NH2 [P55] | 7 | 47 | 16 | 16 | 14 | 5 µg/mL | 5 µg/mL | 4 | 1.25 | 624 | 16 | 5000 | 1.25 | 1.25 | 8 | 2 | 4 | 4 | 25 µg/mL | 32 | HeLaS3 LD50 (HeLaS3): 15 µg/mL; S. epidermidis C621 MIC (S. epidermidis C621): 2 µg/mL; HC50 at 1 h (in vitro [5]): 20 µg/mL; P. acne MIC (P. acne ATCC 6919): 4; WI38 LD50 (WI38): 32 µg/mL
FAKKLAKKLL-NH2 [P59] | 180 | 81 | 31 | 155 | 42 | > (> indicates greater than 200 μg/mL) | > (> indicates greater than 200 μg/mL) | 2 | 1.25 | 624 | 8 | 2500 | 0.75 | 0.75 | 16 | 2 | 8 | 4 | > (> indicates greater than 200 μg/mL) | 77 | S. epidermidis C621 MIC (S. epidermidis C621): 8 µg/mL; HC50 at 1 h (in vitro [5]): 1000 µg/mL; P. acne MIC (P. acne ATCC 6919): 2; WI38 LD50 (WI38): 77 µg/mL
